Experimental data from patent publication US20240228487A1, “FUSED HETEROCYCLIC COMPOUND AND APPLICATION THEREOF, PHARMACEUTICAL COMPOSITIONS CONTAINING SAME AND APPLICATION THEREOF” (ZHEJIANG UNIVERSITY, priority 2021, published 2024).

System: WT (TRPM2+/+) and TRPM2 knockout (TRPM2-/-) mice, tMCAO
Assay: tMCAO in WT and TRPM2 knockout mice given autophagy inhibitor
Type: in vivo, mouse
Details: FIG. 12
Source text: After isoflurane inhalation gas anesthesia of 22-25 g male WT mice (TRPM2+/+) and TRPM2 knockout (TRPM2−/−) mice, the fiber-optic probes of laser Doppler flowmeter were fixed to the skull of the animals with glue and used to monitor the cerebral blood flow of the middle cerebral artery (MCA) supplying cortex.
The mice were fixed in the supine position, and the middle of the neck was dehaired and routinely sterilized with 75% alcohol. […] Only animals whose blood flow values decreased to 20% of the basic value were selected according to the blood flow data monitored by the flowmeter. […]
The mice were decapitated 24 h after ischemia-reperfusion, the coronal planes of the brains were cut into brain slices of about 2 mm thickness uniformly. […] The processed brain slices were photographed using a macro camera, and Image J image analysis software was used to calculate and count the cerebral infarct volume, and the measured results are shown in FIG. 11. […]

Cn1cnc(N)c2ncnc1-2 [Compound 3-MA]
cerebroprotective effect of reduced TRPM2 levels during cerebral ischemia reperfusion: reversed
